Results as given in patent US8207142B2, “Inhibitor of DNA methylation” (priority 2001, dated 2012).

What was measured:
[1] = tested on: 10T1/2 cells; test: Colony-formation assay (plating efficiency) in 10T1/2 cells; assay type: cell-based, mouse; details: for Ave. Plating Efficiency (%): 250 cells, stained after 14-16 days, control 22; for decrease in plating deficiency (cytotoxicity) / cell death observed: 10T1/2 cells; for cell death observed: 0.3 μM 5-Aza-CdR, 3 μM 5-Aza-CR, 30 μM Zebularine
Experimental: (§1) The percentage cell survival was assessed by dividing the mean colony number on the treated plates divided by the mean colony number on the untreated plates ×100.

[2] = tested on: 10T1/2 cells; test: Induction of a myogenic phenotype (myotube formation) in 10T1/2 cells; assay type: cell-based, mouse; parameters: key to Muscle Formation: + representing minimal muscle formation; scored for muscle cells 9-10 days later as + to +++; +++ representing maximal muscle formation; details: for Muscle Formation: 24 hours treatment, scored 9-10 days later; for muscle formation (micrographs, in words): 10T1/2 cells, approximately 9-10 days after drug treatment
Experimental: Cells were plated (3×10^5 cells/100-mm dish) and treated 24 hours later with the indicated concentrations of compounds. The medium was either changed 24 hours or 48 hours after drug treatment. Myotube formation was assayed in 10T1/2 cells as previously described (Constantinides et al., Nature 267:364-366, 1977). […] The ability of Zebularine to cause 10T1/2 cells to undergo the myogenic switch was therefore tested (FIG. 7).

[3] = tested on: p16 gene expression in T24 cells; test: RT-PCR analysis of p16 expression in T24 cells; assay type: cell-based, human
Experimental: The T24 cell line was obtained from the American Type Culture Collection (Rockville, Md.) and cultured in DMEM supplemented with 10% heat-inactivated fetal calf serum and 100 U/ml penicillin-streptomycin. Cultures were grown in a humidified incubator at 37° C. in an atmosphere of 5% CO2 in air.
Cells were plated (3×10^5 cells/100-mm dish) and treated 24 hours later with the indicated concentrations of compounds. The medium was either changed 24 hours or 48 hours after drug treatment.
DNA and RNA were isolated three days after treatment using the NucleoBond RNA/DNA Midi Kit (Clontech Laboratories, Inc., Palo Alto, Calif.).
Total RNA (˜10 μg) was reverse-transcribed using the following reagents: 100 units RNAsin (Promega Corp., Madison, Wis.), 0.1 M DTT (Life Technologies, Inc.), 1000 units of MMLV-RT (Life Technologies, Inc.), 1 mM deoxynucleotide triphosphates (Boehringer Mannheim, Germany), 75 μg/ml BSA, 1× MMLV-RT buffer (Life Technologies, Inc.), and 0.025 ODU Random Hexamers (Amersham-Pharmacia Biotech, Piscataway, N.J.). The reaction mixture was incubated for 10 minutes at 25° C., 45 minutes at 42° C., 3 minutes at 90° C., and chilled for 5 minutes at 4° C., during which time 1.25 μl of MMLV-RT (200 U/μl) were added and the sample then incubated for 45 minutes at 42° C., 10 minutes at 75° C., and stored at −20° C.
cDNA was amplified with primers specific for either p16 or GAPDH. Briefly, PCR reactions were performed in 25-μl volumes at 94° C. for 3 minutes, 28 cycles at 94° C. for 1 minute, 56° C. for 30 seconds, 72° C. for 40 seconds, and a final extension step at 72° C. for 5 min (p16 amplification), and 94° C. for 1 minute, 19 cycles at 94° C. for 1 minute, 58° C. for 30 seconds, 72° C. for 45 seconds, and a final extension step at 72° C. for 2 minutes (GAPDH amplification).
PCR amplifications were performed with cDNA template concentration equivalent to 100 ng of RNA in 10% DMSO. All reactions were analyzed in the linear range of amplification. PCR products were resolved on 2% agarose gels and subsequently transferred to a nylon membrane (Zetaprobe; Bio-Rad, Richmond, Calif.) under alkaline conditions. All blots were hybridized with a γ-^32P-labeled internal oligonucleotide probe, using protocols previously described (Xiong and Laird, Nuc. Acids Res. 25:2532-2534, 1997).
Since 5-Aza-CdR has been shown previously to induce p16 expression in a dose-dependent manner (Bender et al., Cancer Res. 58:95-101, 1998), the two ribonucleoside analogs 5-Aza-CR and Zeb were examined to determine their abilities to induce p16 expression (FIG. 8). Because Zeb is stable in aqueous solution, the effect of prolonging Zeb treatment on p16 expression was tested by treating these cells with different concentrations of Zeb for either 24 hours or 48 hours. RT-PCR was then performed to determine whether p16 gene was induced by drug treatment.

[4] = tested on: T24 cells; test: Colony-formation assay (decrease in plating efficiency) in T24 cells; assay type: cell-based, human
Experimental: as §1

Nc1ncn([C@@H]2O[C@H](CO)[C@@H](O)[C@H]2O)c(=O)n1 [5-Aza-CR, 5-azacytidine, reference compound]
Ave. Plating Efficiency (%) ([1]; 1 μM): 21% | decrease in plating deficiency (cytotoxicity) ([1]; 3 μM): 24% | Ave. Plating Efficiency (%) ([1]; 3 μM): 16% | cell death observed [1]: appreciable cell death | Muscle Formation ([2]; 1 μM): ++ | Muscle Formation ([2]; 3 μM): +++ | muscle formation (micrographs, in words) [2]: formed multinucleated myotubes | p16 expression (RT-PCR) ([3]; 3 μM): no expression | p16 expression (RT-PCR) ([3]; 100 μM): significant expression | highest p16 expression level relative to that with 3 μM 5-Aza-CdR ([3]; 100 μM 5-Aza-CR vs 3 μM 5-Aza-CdR): one-fifth | Toxicity (%) (decrease in plating efficiency) ([4]; 3 μM, 24 hrs): 2% | Toxicity (%) (decrease in plating efficiency) ([4]; 10 μM, 24 hrs): 12% | Toxicity (%) (decrease in plating efficiency) ([4]; 30 μM, 24 hrs): 30% | Toxicity (%) (decrease in plating efficiency) ([4]; 100 μM, 24 hrs): 54%

O=c1ncccn1[C@@H]1O[C@H](CO)[C@@H](O)[C@H]1O [Zebularine, 1-β-ribofuranosyl-1,2-dihydropyrimidin-2-one]
Ave. Plating Efficiency (%) ([1]; 10 μM): 20% | Ave. Plating Efficiency (%) ([1]; 30 μM): 18% | decrease in plating deficiency (cytotoxicity) [1]: 17% | cell death observed [1]: only very little cell death | Muscle Formation ([2]; 10 μM): + | Muscle Formation ([2]; 30 μM): ++ | muscle formation (micrographs, in words) [2]: induced muscle formation in 10T1/2 cells | p16 expression (RT-PCR) ([3]; 300 μM for 24 hours): insufficient to induce p16 expression | p16 expression (RT-PCR) ([3]; 300 μM for 48 hours): p16 expression was induced | p16 expression (RT-PCR) ([3]; 500 μM for 24 hours): p16 expression was induced | Toxicity (%) (decrease in plating efficiency) ([4]; 300 μM, 24 hrs): 1% | Toxicity (%) (decrease in plating efficiency) ([4]; 300 μM, 48 hrs): 2% | Toxicity (%) (decrease in plating efficiency) ([4]; 500 μM, 24 hrs): 7% | Toxicity (%) (decrease in plating efficiency) ([4]; 500 μM, 48 hrs): 8% | Toxicity (%) (decrease in plating efficiency) ([4]; 1000 μM (1 mM), 48 hrs): 23% | Toxicity (%) (decrease in plating efficiency) ([4]; 1000 μM, 24 hrs): 18%
